{"source": "patent US10273517B2", "about": "(The Board of Regents of the University of Oklahoma, priority 2011, dated 2019)", "key": {"[1]": {"test_system": "recombinant Comamonas testosteronan synthase (CtTS)", "assay": "Radiolabeled sugar incorporation assay, divalent cation specificity of CtTS", "type": "biochemical, Comamonas testosteroni KF-1", "conditions": "5 mM Mg2+ or 5 mM Mn2+ or 2 mM EDTA; 30 minutes at 22° C.", "experimental": "Radiolabeled sugar incorporation assays were performed (30 minutes at 22° C., as described in methods) in the presence of 5 mM Mg^2+ or 5 mM Mn^2+ or 2 mM EDTA.\n(§1) Radiolabeled sugar incorporation assays (25 μl, 30 minutes at 22° C.) were performed using clarified lysates (60 μg total protein) in the presence of 0.05 mM UDP-GlcUA or UDP-GlcNAc as carrier with UDP-[^3H]GlcUA or UDP-[^3H]GlcNAc (0.1 μCi/assay) (NEN Perkin Elmer, Waltham, Mass.) with various unlabeled UDP-sugars (1 mM) or no second sugar as a negative control. The reaction buffer was 50 mM Tris, pH 7.2, 5 mM MgCl2; these conditions were obtained after limited optimization trials. Certain reactions used acceptors (1 μg) to bypass de novo initiation, including HA, heparosan, or Ct polysaccharide (sonicated 10 minutes on ice to increase the number of termini).\n(§2) Reactions were incubated at the indicated temperatures for the times noted, and then stopped with 2% final SDS and separated by descending paper chromatography (65:35 ethanol/1 M ammonium acetate buffer, Whatman 3MM paper). This method enabled the separation of GAG polysaccharides with greater than ^˜14 sugar units, which remain at the origin, from smaller oligomers and unincorporated nucleotide sugars that migrate down the strip. The origin of the strip was cut out and subjected to liquid scintillation counting (BIOSAFE™, RPI Corp, Mt. Prospect, Ill.)."}, "[2]": {"test_system": "recombinant Comononas testosteroni synthase (CtTS)", "assay": "Polymer grafting of testosteronan onto acceptors using CtTS (agarose gel, stoichiometric size control)", "type": "biochemical, Comamonas testosteroni", "conditions": "acceptor 15 or 30 μM, monosaccharides/glycosides first extended step-wise with two UDP-sugars, Stains-all", "experimental": "The recombinant Comononas testosteroni synthase was incubated with both UDP-sugars and various acceptors (note: monosaccharides or glycosides first subjected to two extension steps via CtTS enzyme before adding both UDP sugars) OR ‘no acceptor’ in reaction buffer. The reactions were then subjected to agarose gel analysis with Stains-all dye detection. From left to right, the lanes are as follows: (1) HA LoLadder standard; (2) ‘no acceptor’ (de novo synthesis); (3) p-Nitrophenyl-β-D-glucuronide (15 μM); (4) p-Nitrophenyl-β-D-glucuronide (30 μM); (5) GlcUA (15 μM); (6) GlcUA (30 μM); (7) GlcNAc (15 μM); (8) GlcNAc (30 μM); (9) AFA=GlcUA-fluorescein-GlcUA (15 μM); (10) AFA (30 μM); (11) Hep4=base de-acetylated, nitrous acid, & reduced heparosan tetrasaccharide (15 μM); and (12) Hep4 (30 μM). Size control (i.e., differences in molecular weight between 15 and 30 μM) is noted with certain acceptors.\nThe recombinant Comononas testosteroni synthase was incubated with both UDP-sugars and various acceptors OR ‘no acceptor’ in reaction buffer. From left to right in FIG. 21, the lanes are listed below in Table 3.\nFor all acceptors except Hep4 and AFA, the final acceptor was produced in situ before elongation by extending step-wise with the next two appropriate UDP-sugars. For example, GlcUA was extended first with UDP-GlcNAc, then UDP-GlcUA (making a trisaccharide) before the complete polymerization reaction components (i.e., a mixture of many equivalents of UDP-GlcUA and UDP-GlcNAc together to allow the production of long polymer chains) were added. Two different concentrations of the acceptor were added (either 15 or 30 μM as noted) to test the effect of stoichiometric size control."}, "[3]": {"test_system": "recombinant Comamonas testosteronan synthase (CtTS)", "assay": "Radiolabeled sugar incorporation assay, donor sugar specificity of CtTS", "type": "biochemical, Comamonas testosteroni KF-1", "conditions": "unlabeled UDP-sugar 1 mM, clarified lysate, 30 minutes at 22° C.; for activity (incorporation of [3H]GlcUA) with the unlabeled UDP-sugar as second precursor: UDP-[3H]GlcUA tracer; for incorporation of [3H]GlcNAc with the unlabeled UDP-sugar as second precursor: UDP-[3H]GlcNAc tracer", "experimental": "FIG. 3 graphically depicts the donor specificity of CtTS.\nIn order to determine the preferred hexosamine sugar donor utilized for putative GAG-like heteropolysaccharide biosynthesis, activity assays were performed with clarified lysates from recombinant bacteria expressing CtTS using two different UDP-sugars simultaneously in polymerization reactions in vitro. […] By further studying acceptor specificity and using GAG degrading enzymes that are specific for these GAGs, the nature of the polysaccharide formed by CtTS in vitro was characterized.\nas §1, §2"}, "[4]": {"test_system": "Streptomyces hyalurolyticus HA lyase", "assay": "GAG degrading enzyme challenge: HA lyase", "type": "in vitro ADME", "source_text": "(§3) Because of this finding, it is believed that while CtTS is able to utilize heparosan as an acceptor molecule due to a hypothetical shared structural feature, this GAG is not the native substrate."}, "[5]": {"test_system": "Proteus vulgaris chondroitinase ABC", "assay": "GAG degrading enzyme challenge: chondroitinase ABC", "type": "in vitro ADME", "source_text": "as §3"}, "heparin lyase I": {"target": "heparin lyase I (Pedobacter heparinus, UniProt Q05819)", "sequence (Q05819 22-384)": "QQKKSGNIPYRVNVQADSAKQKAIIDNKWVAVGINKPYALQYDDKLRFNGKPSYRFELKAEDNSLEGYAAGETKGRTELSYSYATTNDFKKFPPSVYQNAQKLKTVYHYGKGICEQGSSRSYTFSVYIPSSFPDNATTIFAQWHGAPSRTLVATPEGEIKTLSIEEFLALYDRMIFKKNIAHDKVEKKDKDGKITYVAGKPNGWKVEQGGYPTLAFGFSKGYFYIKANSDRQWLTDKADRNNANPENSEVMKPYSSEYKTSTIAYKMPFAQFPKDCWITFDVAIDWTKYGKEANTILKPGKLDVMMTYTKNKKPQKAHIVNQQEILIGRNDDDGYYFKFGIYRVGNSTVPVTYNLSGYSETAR", "assay": "GAG degrading enzyme challenge: heparin lyase I", "type": "in vitro ADME", "source_text": "as §3"}, "[6]": {"test_system": "recombinant Comamonas testosteronan synthase (CtTS)", "assay": "Radiolabeled sugar polymerization assay, acceptor specificity of CtTS", "type": "biochemical, Comamonas testosteroni KF-1", "conditions": "radiolabeled UDP-sugars; acceptor 1 μg", "experimental": "FIG. 4 graphically depicts the acceptor specificity of CtTS. Extension of exogenous polysaccharide by recombinant Comamonas testosteronan synthase was measured. Activity assays were performed with radiolabeled UDP-sugars in the presence of hyaluronan, unsulfated chondroitin, heparosan or sonicated Comamonas polysaccharide.\nAcceptor Specificity of CtTS: To identify the acceptor preference of CtTS, radiolabeled sugar polymerization assays were performed in the presence of various GAG acceptors. In many, but not all, GAG synthases, exogenous cognate polysaccharide will increase the signal in sugar incorporation assays by bypassing the slower de novo initiation phase (DeAngelis et al., 1999 and 2004); the elongation phase is much more rapid; thus, higher activity is observed. Typically, non-cognate GAG polymers with different glycosidic linkage patterns are very poor or non-functional acceptors for the known GAG synthases in vitro. Hyaluronan, unsulfated chondroitin and heparosan as well as polysaccharide extract from C. testosteroni were tested. Hyaluronan and heparosan tetrasaccharides were also tested for their abilities to act as acceptors. […] To confirm that CtTS is able to directly extend a heparosan acceptor so as to rule out an artifactual stabilizing or conformational effect in the radioassays, an ^125I-labeled tetrasaccharide heparosan acceptor was also tested in vitro in the presence of only UDP-GlcNAc for single sugar addition, or UDP-GlcNAc and UDP-GlcUA for polymerization.\nRadiolabeled sugar incorporation assays (25 μl, 30 minutes at 22° C.) were performed using clarified lysates (60 μg total protein) in the presence of 0.05 mM UDP-GlcUA or UDP-GlcNAc as carrier with UDP-[^3H]GlcUA or UDP-[^3H]GlcNAc (0.1 μCi/assay) (NEN Perkin Elmer, Waltham, Mass.) with various unlabeled UDP-sugars (1 mM) or no second sugar as a negative control. The reaction buffer was 50 mM Tris, pH 7.2, 5 mM MgCl2; these conditions were obtained after limited optimization trials. […]"}}, "note": "Entries after “also recorded” stand apart in the source; their conditions may differ.", "data": [{"compound": "O=C(O)CN(CCN(CC(=O)O)CC(=O)O)CC(=O)O", "note": "[EDTA]", "values": [{"measurement": "GT activity of CtTS in the presence of divalent cation or chelator", "setting": "[1]", "result": "eradicated the polymerization signal"}]}, {"compound": "CC(=O)N[C@H]1C(O)O[C@H](CO)[C@@H](O)[C@@H]1O", "note": "(stereo partly shown) [GlcNAc, N-acetylglucosamine]", "values": [{"measurement": "stoichiometric size control of testosteronan product by acceptor", "setting": "[2]", "result": "did not"}]}, {"compound": "O=C[C@H](O)[C@@H](O)[C@H](O)[C@H](O)C(=O)O", "note": "[GlcUA, glucuronic acid]", "values": [{"measurement": "stoichiometric size control of testosteronan product by acceptor", "setting": "[2]", "result": "allowed efficient size control"}]}, {"compound": "[Mg+2]", "note": "[Mg^2+]", "values": [{"measurement": "GT activity of CtTS in the presence of divalent cation or chelator", "setting": "[1]", "result": "roughly twice as for Mn^2+"}]}, {"compound": "[Mn+2]", "note": "[Mn^2+]", "values": [{"measurement": "GT activity of CtTS in the presence of divalent cation or chelator", "setting": "[1]", "result": "supported GT activity"}]}, {"compound": "CC(=O)N[C@H]1[C@@H](OP(=O)(O)OP(=O)(O)OC[C@H]2O[C@@H](n3ccc(=O)[nH]c3=O)[C@H](O)[C@@H]2O)O[C@H](CO)[C@H](O)[C@@H]1O", "note": "[UDP-GalNAc]", "values": [{"measurement": "activity (incorporation of [3H]GlcUA) with the unlabeled UDP-sugar as second precursor", "setting": "[3]", "result": "not"}]}, {"compound": "O=C(O)[C@H]1O[C@H](OP(=O)(O)OP(=O)(O)OC[C@H]2O[C@@H](n3ccc(=O)[nH]c3=O)[C@H](O)[C@@H]2O)[C@H](O)[C@@H](O)[C@H]1O", "note": "[UDP-GalUA]", "values": [{"measurement": "incorporation of [3H]GlcNAc with the unlabeled UDP-sugar as second precursor", "setting": "[3]", "result": "only the reactions containing UDP-GlcUA showed significant incorporation"}]}, {"compound": "CC(=O)N[C@H]1[C@@H](OP(=O)(O)OP(=O)(O)OC[C@H]2O[C@@H](n3ccc(=O)[nH]c3=O)[C@H](O)[C@@H]2O)O[C@H](CO)[C@@H](O)[C@@H]1O", "note": "[UDP-GlcNAc]", "values": [{"measurement": "activity (incorporation of [3H]GlcUA) with the unlabeled UDP-sugar as second precursor", "setting": "[3]", "result": "Significant activity"}]}, {"compound": "O=C(O)[C@H]1O[C@H](OP(=O)(O)OP(=O)(O)OC[C@H]2O[C@@H](n3ccc(=O)[nH]c3=O)[C@H](O)[C@@H]2O)[C@H](O)[C@@H](O)[C@@H]1O", "note": "[UDP-GlcUA]", "values": [{"measurement": "incorporation of [3H]GlcNAc with the unlabeled UDP-sugar as second precursor", "setting": "[3]", "result": "significant incorporation"}]}, {"compound": "O=C(O)[C@@H]1O[C@@H](OP(=O)(O)OP(=O)(O)OC[C@H]2O[C@@H](n3ccc(=O)[nH]c3=O)[C@H](O)[C@@H]2O)[C@H](O)[C@@H](O)[C@@H]1O", "note": "[UDP-IdoUA]", "values": [{"measurement": "incorporation of [3H]GlcNAc with the unlabeled UDP-sugar as second precursor", "setting": "[3]", "result": "only the reactions containing UDP-GlcUA showed significant incorporation"}]}, {"compound": "O=C(O)[C@H]1O[C@@H](Oc2ccc([N+](=O)[O-])cc2)[C@H](O)[C@@H](O)[C@@H]1O", "note": "[p-Nitrophenyl-D-glucuronide, p-Nitrophenyl-β-D-glucuronide]", "values": [{"measurement": "stoichiometric size control of testosteronan product by acceptor", "setting": "[2]", "result": "allowed efficient size control"}]}, {"compound": "GlcUA-fluorescein-GlcUA [AFA]", "values": [{"measurement": "stoichiometric size control of testosteronan product by acceptor", "setting": "[2]", "result": "efficient size control"}]}, {"compound": "[-4-D-GlcUA-α1,4-D-GlcNAc-α1-]n [synthetic polysaccharide]", "values": [{"measurement": "sensitivity to degradation by Streptomyces hyalurolyticus HA lyase", "setting": "[4]", "result": "insensitive to degradation"}, {"measurement": "sensitivity to degradation by Proteus vulgaris chondroitinase ABC", "setting": "[5]", "result": "insensitive to degradation"}, {"measurement": "sensitivity to degradation by heparin lyase I", "setting": "heparin lyase I", "result": "insensitive to degradation"}]}, {"compound": "[-4-D-GlcUA-α1,4-D-GlcNAc-α1-]n [testosteronan]", "values": [{"measurement": "sensitivity to degradation by heparin lyase I", "setting": "heparin lyase I", "result": "did not digest"}]}, {"compound": "[-4-D-GlcUA-β1,3-D-GlcNAc-β1-]n [hyaluronan]", "values": [{"measurement": "use of exogenous GAG polysaccharide as acceptor by CtTS", "setting": "[6]", "result": "not"}]}, {"compound": "[-4-D-GlcUA-β1,4-D-GlcNAc-α1-]n [heparosan]", "values": [{"measurement": "use of exogenous GAG polysaccharide as acceptor by CtTS", "setting": "[6]", "result": "able to use; also recorded: capable of utilizing"}]}, {"compound": "chondroitin", "values": [{"measurement": "use of exogenous GAG polysaccharide as acceptor by CtTS", "setting": "[6]", "result": "not"}]}]}
